Laboratory results published in patent publication US8415312B2, “Compound which is a nystatin derivative” (Biosergen AS, priority 2007, dated 2013).
In brackets after ≈: the same amount, converted by molar mass.

What was measured:
Assay in all cases: Antifungal susceptibility study (1), broth microdilution MIC
Type in all cases: cell-based
[1] = tested on: Aspergillus niger ATCC 16404; conditions: lowest concentration preventing any visible growth, read at 48 hours, 35° C., RPMI 1640 pH 7.0
Experimental: (§1) ACROS ORGANICS, New Jersey, USA), pH 7.0, was used in study. […] Then these DMSO solutions were diluted 50-fold (first 10-fold and then 5-fold) in the test medium. […] The solutions were prepared just before using. The organisms used for susceptibility testing were: Candida albicans ATCC 14053, Cryptococcus humicolus ATCC 9949, Aspergillus niger ATCC 16404 and Fusarium oxysporum VKM F-140 (=CMI, IMI 90473). Organisms were stored on potato dextrose agar […] 50% glycerol solution at -70° C. For short-term storage, stock cultures were stored on agar […] 4° C. The cultures of yeasts were sub-cultured onto Sabouraud dextrose (SAB) agar and incubated for 24 hours at 35° C. (Candida albicans) or for 48 hours at 25° C. (Cryptococcus humicolus) to obtain a freshly grown pure culture. The cultures of moulds were sub-cultured onto potato dextrose agar and incubated for 7 days at 35° C. […] (Fusarium oxysporum) to ensure maximum sporulation. […] Finally, the suspensions were vortexed for 15 s to break up clumps of cells and then filtered through four layers of sterile gauze. The densities of conidial spore suspensions was measured at 530 nm and adjusted to 0.09-0.11 for Aspergillus niger and 0.15-0.17 for Fusarium oxysporum. These suspensions were diluted 1:50 with the standard medium. […] Inoculum quantitation was performed by plating dilution of the inoculum on Sabouraud dextrose agar to determine the viable number of CFU per milliliter. Sterile 96-well flat-bottomed microtitration plates were used for testing. 100 μl of diluted inocula were dispensed into each microdilution well containing 100 μl of the double dilutions of compounds. Drug-free and yeast/mould-free controls were included. Microdilution trays were incubated at 35° C. (Candida albicans and moulds) or 25° C. (Cryptococcus humicolus) without agitation and observed for the presence or absence of visible growth. […] Minimal inhibitory concentrations (MICs) were read at 48 hours.

[2] = tested on: Fusarium oxysporum VKM F-140; conditions: lowest concentration preventing any visible growth, read at 48 hours, 35° C., RPMI 1640 pH 7.0
Experimental: as §1

[3] = tested on: Cryptococcus humicolus ATCC 9949; conditions: lowest concentration preventing any visible growth, read at 48 hours, 25° C., RPMI 1640 pH 7.0
Experimental: (§2) ACROS ORGANICS, New Jersey, USA), pH 7.0, was used in study. […] Then these DMSO solutions were diluted 50-fold (first 10-fold and then 5-fold) in the test medium. […] The solutions were prepared just before using. The organisms used for susceptibility testing were: Candida albicans ATCC 14053, Cryptococcus humicolus ATCC 9949, Aspergillus niger ATCC 16404 and Fusarium oxysporum VKM F-140 (=CMI, IMI 90473). Organisms were stored on potato dextrose agar […] 50% glycerol solution at -70° C. For short-term storage, stock cultures were stored on agar […] 4° C. The cultures of yeasts were sub-cultured onto Sabouraud dextrose (SAB) agar and incubated for 24 hours at 35° C. (Candida albicans) or for 48 hours at 25° C. (Cryptococcus humicolus) to obtain a freshly grown pure culture. The cultures of moulds were sub-cultured onto potato dextrose agar and incubated for 7 days at 35° C. […] (Fusarium oxysporum) to ensure maximum sporulation. […] Inoculum quantitation was performed by plating dilution of the inoculum on Sabouraud dextrose agar to determine the viable number of CFU per milliliter. Sterile 96-well flat-bottomed microtitration plates were used for testing. 100 μl of diluted inocula were dispensed into each microdilution well containing 100 μl of the double dilutions of compounds. Drug-free and yeast/mould-free controls were included. Microdilution trays were incubated at 35° C. (Candida albicans and moulds) or 25° C. (Cryptococcus humicolus) without agitation and observed for the presence or absence of visible growth. […] Minimal inhibitory concentrations (MICs) were read at 48 hours.

[4] = tested on: Candida albicans ATCC 14053; conditions: lowest concentration preventing any visible growth, read at 48 hours, 35° C., RPMI 1640 pH 7.0
Experimental: as §2

Structure (SMILES)	MIC Aspergillus niger ATCC 16404 [1] [µg/mL]	MIC Fusarium oxysporum VKM F-140 [2] [µg/mL]	MIC Cryptococcus humicolus ATCC 9949 [3] [µg/mL]	MIC Candida albicans ATCC 14053 [4] [µg/mL]
COC(=O)C(NC(=O)C1C(O)CC2(O)CC(O)C(O)CCC(O)CC(O)CC(O)CC(=O)OC(C)C(C)C(O)C(C)C=CC=CC=CC=CC=CC=CC=CC(OC3OC(C)C(O)C(N)C3O)CC1O2)C(C)C (centres unmarked) [Compound 8]	4 (≈ 3.86 µM)	8 (≈ 7.71 µM)	2 (≈ 1.93 µM)	2 (≈ 1.93 µM)
COC(=O)C(C)NC(=O)C1C(O)CC2(O)CC(O)C(O)CCC(O)CC(O)CC(O)CC(=O)OC(C)C(C)C(O)C(C)C=CC=CC=CC=CC=CC=CC=CC(OC3OC(C)C(O)C(N)C3O)CC1O2 (centres unmarked) [Compound 10]	4 (≈ 3.96 µM)	8 (≈ 7.93 µM)	2 (≈ 1.98 µM)	2 (≈ 1.98 µM)
CC1C=CC=CC=CC=CC=CC=CC=CC(OC2OC(C)C(O)C(NCC3(O)OCC(O)C(OC4OC(CO)C(O)C(O)C4O)C3O)C2O)CC2OC(O)(CC(O)C(O)CCC(O)CC(O)CC(O)CC(=O)OC(C)C(C)C1O)CC(O)C2C(=O)O (centres unmarked) [Compound 19]	2 (≈ 1.6 µM)	8 (≈ 6.41 µM)	2 (≈ 1.6 µM)	2 (≈ 1.6 µM)
CC1C=CC=CC=CC=CC=CC=CC=CC(OC2OC(C)C(O)C(N(Cc3ccc(N(C)C)cc3)Cc3ccc(N(C)C)cc3)C2O)CC2OC(O)(CC(O)C(O)CCC(O)CC(O)CC(O)CC(=O)OC(C)C(C)C1O)CC(O)C2C(=O)O (centres unmarked) [Compound 20]	4 (≈ 3.36 µM)	>16	2 (≈ 1.68 µM)	2 (≈ 1.68 µM)
CC1C=CC=CC=CC=CC=CC=CC=CC(OC2OC(C)C(O)C(NCCCN)C2O)CC2OC(O)(CC(O)C(O)CCC(O)CC(O)CC(O)CC(=O)OC(C)C(C)C1O)CC(O)C2C(=O)O (centres unmarked) [Compound 21]	4 (≈ 4.08 µM)	4 (≈ 4.08 µM)	4 (≈ 4.08 µM)	2 (≈ 2.04 µM)
CC1C=CC=CC=CC=CC=CC=CC=CC(OC2OC(C)C(O)C(NC(=O)C(N)CCCCN)C2O)CC2OC(O)(CC(O)C(O)CCC(O)CC(O)CC(O)CC(=O)OC(C)C(C)C1O)CC(O)C2C(=O)O (centres unmarked) [Compound 23]	8 (≈ 7.6 µM)	8 (≈ 7.6 µM)	4 (≈ 3.8 µM)	4 (≈ 3.8 µM)
CC1C=CC=CC=CC=CC=CC=CC=CC(OC2OC(C)C(O)C(NCC3(O)OCC(O)C(O)C3O)C2O)CC2OC(O)(CC(O)C(O)CCC(O)CC(O)CC(O)CC(=O)OC(C)C(C)C1O)CC(O)C2C(=O)NCCCN(C)C (centres unmarked) [Compound 30]	1 (≈ 0.854 µM)	4 (≈ 3.42 µM)	1 (≈ 0.854 µM)	1 (≈ 0.854 µM)
CC1C=CC=CC=CC=CC=CC=CC=CC(OC2OC(C)C(O)C(NCC3(O)OCC(O)C(O)C3O)C2O)CC2OC(O)(CC(O)C(O)CCC(O)CC(O)CC(O)CC(=O)OC(C)C(C)C1O)CC(O)C2C(=O)NCCCN(C)C (centres unmarked) [Compound 31, N-tagatopyronosyl S44HP DMAP amide]	2 (≈ 1.71 µM)	4 (≈ 3.42 µM)	2 (≈ 1.71 µM)	1 (≈ 0.854 µM)
CC1C=CC=CC=CC=CC=CC=CC=CC(OC2OC(C)C(O)C(NCc3ccc(N(C)C)cc3)C2O)CC2OC(O)(CC(O)C(O)CCC(O)CC(O)CC(O)CC(=O)OC(C)C(C)C1O)CC(O)C2C(=O)NCCCN(C)C (centres unmarked) [Compound 32]	2 (≈ 1.75 µM)	8 (≈ 7.01 µM)	2 (≈ 1.75 µM)	2 (≈ 1.75 µM)
CC1C=CC=CC=CC=CC=CC=CC=CC(OC2OC(C)C(O)C(NC(=O)C(N)CCCCN)C2O)CC2OC(O)(CC(O)C(O)CCC(O)CC(O)CC(O)CC(=O)OC(C)C(C)C1O)CC(O)C2C(=O)NCCCN(C)C [Compound 33, N-L-lysyl S44HP DMAP-Amide]	1 (≈ 0.88 µM)	2 (≈ 1.76 µM)	1 (≈ 0.88 µM)	1 (≈ 0.88 µM)
CC1C=CC=CC=CC=CC=CC=CC=CC(OC2OC(C)C(O)C(NC(=O)CN(C)C)C2O)CC2OC(O)(CC(O)C(O)CCC(O)CC(O)CC(O)CC(=O)OC(C)C(C)C1O)CC(O)C2C(=O)NCCCN(C)C (centres unmarked) [Compound 34]	1 (≈ 0.915 µM)	4 (≈ 3.66 µM)	2 (≈ 1.83 µM)	1 (≈ 0.915 µM)
CC1C=CC=CC=CC=CC=CC=CC=CC(OC2OC(C)C(O)C(NC(=O)c3ccc(CN)cc3)C2O)CC2OC(O)(CC(O)C(O)CCC(O)CC(O)CC(O)CC(=O)OC(C)C(C)C1O)CC(O)C2C(=O)NCCCN(C)C (centres unmarked) [Compound 35]	4 (≈ 3.5 µM)	4 (≈ 3.5 µM)	2 (≈ 1.75 µM)	2 (≈ 1.75 µM)
CC1C=CC=CC=CC=CC=CC=CC=CC(OC2OC(C)C(O)C(NCC3(O)OCC(O)C(O)C3O)C2O)CC2OC(O)(CC(O)C(O)CCC(O)CC(O)CC(O)CC(=O)OC(C)C(C)C1O)CC(O)C2C(=O)NCCCO (centres unmarked) [Compound 36]	4 (≈ 3.5 µM)	16 (≈ 14 µM)	4 (≈ 3.5 µM)	4 (≈ 3.5 µM)
CC1C=CC=CC=CC=CC=CC=CC=CC(OC2OC(C)C(O)C(NCc3ccc(N(C)C)cc3)C2O)CC2OC(O)(CC(O)C(O)CCC(O)CC(O)CC(O)CC(=O)OC(C)C(C)C1O)CC(O)C2C(=O)NCCCO (centres unmarked) [Compound 37]	2 (≈ 1.79 µM)	4 (≈ 3.59 µM)	1 (≈ 0.897 µM)	2 (≈ 1.79 µM)
CC1C=CC=CC=CC=CC=CC=CC=CC(OC2OC(C)C(O)C(NC(=O)C(N)CCCCN)C2O)CC2OC(O)(CC(O)C(O)CCC(O)CC(O)CC(O)CC(=O)OC(C)C(C)C1O)CC(O)C2C(=O)NCCCO (centres unmarked) [Compound 38]	2 (≈ 1.8 µM)	4 (≈ 3.61 µM)	1 (≈ 0.901 µM)	1 (≈ 0.901 µM)
CC1C=CC=CC=CC=CC=CC=CC=CC(OC2OC(C)C(O)C(NC(=O)CN(C)C)C2O)CC2OC(O)(CC(O)C(O)CCC(O)CC(O)CC(O)CC(=O)OC(C)C(C)C1O)CC(O)C2C(=O)NCCCO (centres unmarked) [Compound 39]	2 (≈ 1.88 µM)	16 (≈ 15 µM)	1 (≈ 0.938 µM)	1 (≈ 0.938 µM)
CC1C=CC=CC=CC=CC=CC=CC=CC(OC2OC(C)C(O)C(NC(=O)c3ccc(CN)cc3)C2O)CC2OC(O)(CC(O)C(O)CCC(O)CC(O)CC(O)CC(=O)OC(C)C(C)C1O)CC(O)C2C(=O)NCCCO (centres unmarked) [Compound 40]	4 (≈ 3.59 µM)	16 (≈ 14.4 µM)	2 (≈ 1.79 µM)	2 (≈ 1.79 µM)
